Experimental data taken from paper PMC6720600, “Discovery of Novel TASK-3 Channel Blockers Using a Pharmacophore-Based Virtual Screening” (International Journal of Molecular Sciences, 2019).

How the values were obtained:
Format in all cases: cell-based
[1] = target: T1, TASK-1 (Homo sapiens, UniProt O14649); experiment: dose-response of TASK-1 channel inhibition (electrophysiology; expression details for TASK-1 not given)
T1 construct: gene KCNK3

[2] = target: T2, TASK-3 (Homo sapiens, UniProt Q9NPC2); experiment: whole-cell patch clamp, HEK-293 cells transfected with TASK-3
T2 construct: gene KCNK9

[3] = target: T1, TASK-1; experiment: dose-response curve on human TASK-1 (electrophysiology; value not given)

T1 sequence (O14649 whole entry): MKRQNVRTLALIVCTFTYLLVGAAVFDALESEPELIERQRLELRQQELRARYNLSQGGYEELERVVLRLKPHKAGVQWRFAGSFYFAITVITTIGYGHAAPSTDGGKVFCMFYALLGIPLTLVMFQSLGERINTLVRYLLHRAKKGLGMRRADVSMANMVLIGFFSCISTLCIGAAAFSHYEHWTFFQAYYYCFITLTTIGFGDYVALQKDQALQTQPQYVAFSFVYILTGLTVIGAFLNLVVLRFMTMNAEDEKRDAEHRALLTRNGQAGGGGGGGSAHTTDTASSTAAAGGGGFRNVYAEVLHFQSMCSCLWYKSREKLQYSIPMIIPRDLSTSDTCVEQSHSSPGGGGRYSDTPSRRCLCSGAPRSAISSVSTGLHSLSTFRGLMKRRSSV
T2 sequence (Q9NPC2 whole entry): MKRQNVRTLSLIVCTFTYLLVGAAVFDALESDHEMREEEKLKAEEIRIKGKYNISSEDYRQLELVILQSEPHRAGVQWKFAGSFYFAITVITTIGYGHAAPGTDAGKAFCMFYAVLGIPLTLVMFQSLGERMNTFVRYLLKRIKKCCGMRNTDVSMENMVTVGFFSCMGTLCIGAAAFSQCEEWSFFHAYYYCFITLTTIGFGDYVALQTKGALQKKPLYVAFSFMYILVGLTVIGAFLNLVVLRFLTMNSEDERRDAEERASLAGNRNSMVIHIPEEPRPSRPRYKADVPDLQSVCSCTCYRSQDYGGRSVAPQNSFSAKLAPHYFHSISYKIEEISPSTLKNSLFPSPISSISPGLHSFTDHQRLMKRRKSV

| IC50 [1] | IC50 [2] | SMILES | IC50 [3] |
| --- | --- | --- | --- |
| 21.2 ± 5.5 µM | 14.2 ± 3.4 µM | CC(C(=O)Nc1ccc(O)cc1F)c1cc2cccc(NC(=O)c3ccc(O)cc3)c2o1 (stereo not shown) [DR16.1] |  |
|  | 56.8 ± 3.9 µM | CC(C(=O)Nc1ccc(O)cc1F)c1cc2ccccc2o1 (stereo not shown) [DR16] | Lead ligand DR16 blocks human TASK channels. |
